Experiments:
[1] = tested on: mice with acute hyperuricemia; assay: In vivo activity of reducing serum uric acid (acute hyperuricemia induced with xanthine and potassium oxonate); parameters: species or system Kunming mice; settings: for BUA (blood uric acid concentration): hyperuricemic Kunming mice; for anti-gout activity, compared with positive control benzbromarone: batch 1, conclusion from Table 2
Procedure: All newly synthesized target compounds were primarily evaluated for their activities of reducing blood uric acid in vivo (mice). Benzbromarone and lesinurad were selected as positive control drugs.
Example 46. In Vivo Activity of Reducing Serum Uric Acid
• (1) Experimental animal: Kunming mice, provided by Experimental Animal Center of Shandong University • (2) Preparation of compounds: Compounds were dissolved in ethanol and CMC-Na. • (3) Modeling drugs: Xanthine and potassium oxonate • (4) Reference drugs: Benzbromarone and Lesinurad • (5) Test method: The model group consisted of mice with acute hyperuricemia induced with 0.2 mL xanthine intragastric injection and 0.2 mL potassium oxonate subcutaneous injection, and not treated with test compound.

[2] = batch 1, Model 1462.6 ± 194.3, Blank 377.2 ± 27.6
[3] = batch 2, Model 576.5 ± 120.5, Blank 262 ± 43.6, Blank (CMC-Na) 286 ± 90.9

SMILES	BUA (blood uric acid concentration) [1, 2] [µM]	also measured
CCc1oc2ccccc2c1C(=O)c1cc(Br)c(O)c(Br)c1 [Benzbromarone, reference compound]	762.5 ± 30.3	
CCOC(=O)CSc1nc2cccnc2n1-c1cccc2ccccc12 [Compound M1]	1507.6 ± 229.2	melting point: 116.5 to 117 °C
CCOC(=O)CCCSc1nc2cccnc2n1-c1cccc2ccccc12 [Compound M2]	634.7 ± 97.7	anti-gout activity, compared with positive control benzbromarone [1]: significant anti-gout activity
CCOC(=O)C(C)Sc1nc2cccnc2n1-c1cccc2ccccc12 (centres unmarked) [Compound M3]	1321.5 ± 183.5	
CCOC(=O)C(C)(C)Sc1nc2cccnc2n1-c1cccc2ccccc12 [Compound M4]	1363 ± 184.7	
O=C(O)CSc1nc2cccnc2n1-c1cccc2ccccc12 [Compound M5]	1307.5 ± 195.3	melting point: 129 to 130 °C
O=C(O)CCCSc1nc2cccnc2n1-c1cccc2ccccc12 [Compound M6]	1342 ± 144.3	
CC(Sc1nc2cccnc2n1-c1cccc2ccccc12)C(=O)O (centres unmarked) [Compound M7]	1307.2 ± 133.1	
CC(C)(Sc1nc2cccnc2n1-c1cccc2ccccc12)C(=O)O [Compound M8]	1229 ± 150.2	
CCOC(=O)CSc1nc2cccnc2n1-c1ccc(C2CC2)c2ccccc12 [Compound Q1]	1344.75 ± 287.5	
CCOC(=O)CCCSc1nc2cccnc2n1-c1ccc(C2CC2)c2ccccc12 [Compound Q2]	1422.6 ± 194.4	
CCOC(=O)C(C)Sc1nc2cccnc2n1-c1ccc(C2CC2)c2ccccc12 (centres unmarked) [Compound Q3]	672 ± 76.2	anti-gout activity, compared with positive control benzbromarone [1]: significant anti-gout activity
CCOC(=O)C(C)(C)Sc1nc2cccnc2n1-c1ccc(C2CC2)c2ccccc12 [Compound Q4]	1328.2 ± 163.8	
O=C(O)CSc1nc2cccnc2n1-c1ccc(C2CC2)c2ccccc12 [Compound Q5]	824 ± 109.9	
O=C(O)CCCSc1nc2cccnc2n1-c1ccc(C2CC2)c2ccccc12 [Compound Q6]	1490.7 ± 269.9	
CC(Sc1nc2cccnc2n1-c1ccc(C2CC2)c2ccccc12)C(=O)O (centres unmarked) [Compound Q7]	763.2 ± 248.7	
CC(C)(Sc1nc2cccnc2n1-c1ccc(C2CC2)c2ccccc12)C(=O)O [Compound Q8]	1448 ± 216.7	

SMILES	BUA (blood uric acid concentration) [1, 2] [µM]	also measured
CCOC(=O)CSc1nc2ncccc2n1-c1ccc(C2CC2)c2ccccc12 [Compound T1]		BUA (blood uric acid concentration) [1, 3]: 353.5 ± 35.6 µM
CCOC(=O)CCCSc1nc2ncccc2n1-c1ccc(C2CC2)c2ccccc12 [Compound T2]		BUA (blood uric acid concentration) [1, 3]: 334 ± 65.7 µM
CCOC(=O)C(C)Sc1nc2ncccc2n1-c1ccc(C2CC2)c2ccccc12 (centres unmarked) [Compound T3]		BUA (blood uric acid concentration) [1, 3]: 339 ± 29.8 µM
CCOC(=O)C(C)(C)Sc1nc2ncccc2n1-c1ccc(C2CC2)c2ccccc12 [Compound T4]		BUA (blood uric acid concentration) [1, 3]: 306 ± 46.8 µM
O=C(O)CSc1nc2ncccc2n1-c1ccc(C2CC2)c2ccccc12 [Compound T5]		BUA (blood uric acid concentration) [1, 3]: 342 ± 44.1 µM
O=C(O)CCCSc1nc2ncccc2n1-c1ccc(C2CC2)c2ccccc12 [Compound T6]		BUA (blood uric acid concentration) [1, 3]: 330 ± 29.1 µM
CC(Sc1nc2ncccc2n1-c1ccc(C2CC2)c2ccccc12)C(=O)O (centres unmarked) [Compound T7]		BUA (blood uric acid concentration) [1, 3]: 189.7 ± 67.8 µM
CC(C)(Sc1nc2ncccc2n1-c1ccc(C2CC2)c2ccccc12)C(=O)O [Compound T8]		BUA (blood uric acid concentration) [1, 3]: 295.2 ± 54 µM
CCOC(=O)CSc1nc2cccnc2n1-c1c(C)cc(C)cc1C [Compound X1]	1255.2 ± 184	
CCOC(=O)CCCSc1nc2cccnc2n1-c1c(C)cc(C)cc1C [Compound X2]	1107.7 ± 195.1	
CCOC(=O)C(C)Sc1nc2cccnc2n1-c1c(C)cc(C)cc1C (centres unmarked) [Compound X3]	983.2 ± 122.6	
CCOC(=O)C(C)(C)Sc1nc2cccnc2n1-c1c(C)cc(C)cc1C [Compound X4]	689.2 ± 53.4	anti-gout activity, compared with positive control benzbromarone [1]: significant anti-gout activity
Cc1cc(C)c(-n2c(SCC(=O)O)nc3cccnc32)c(C)c1 [Compound X5]	1310.2 ± 155.8	
Cc1cc(C)c(-n2c(SCCCC(=O)O)nc3cccnc32)c(C)c1 [Compound X6]	655.2 ± 210.8	anti-gout activity, compared with positive control benzbromarone [1]: significant anti-gout activity
Cc1cc(C)c(-n2c(SC(C)C(=O)O)nc3cccnc32)c(C)c1 (centres unmarked) [Compound X7]	727.2 ± 150.7	anti-gout activity, compared with positive control benzbromarone [1]: significant anti-gout activity
Cc1cc(C)c(-n2c(SC(C)(C)C(=O)O)nc3cccnc32)c(C)c1 [Compound X8]	1288 ± 211.5	
O=C(O)CSc1nnc(Br)n1-c1ccc(C2CC2)c2ccccc12 [RDEA594, Lesinurad, reference compound]		BUA (blood uric acid concentration) [1, 3]: 409.5 ± 124.3 µM

— US10399978B2, “Imidazopyridine thioglycolic acid derivatives as potent inhibitors of human urate transporter 1” (SHANDONG UNIVERSITY, priority 2016, dated 2019)
